Data from the NIST ThermoML archive (doi:10.1021/acs.jced.5b01104).
Numbers after ± are expanded uncertainties.

Conditions: Liquid, Chromatography

O [water]
vapor or sublimation pressure (412.6 K): 356 ± 28 kPa
vapor or sublimation pressure (443.2 K): 792 ± 62 kPa
vapor or sublimation pressure (483.2 K): 1902 ± 150 kPa
